Data as given in patent publication US9801850B2, “Antibacterial agent” (OSAKA UNIVERSITY, priority 2009, dated 2017).
In brackets after ≈: the same amount, converted by molar mass.

What was measured:
[1] = tested on: Pseudomonas aeruginosa ATCC7700; assay: Antibacterial spectrum MIC (Table 7); format: cell-based
Description: (§1) Methicillin-susceptible Staphylococcus aureus (MSSA) NCTC8325 and methicillin-resistant Staphylococcus aureus (MRSA) ATCC43300 were used as bacteria. The bacteria of each type were cultured using Mueller-Hinton Broth (MH-broth, Difco) as a medium. Then, the minimum inhibitory concentration (MIC) of each of the EGCG derivatives was measured by a broth microdilution method in accordance with the Clinical and Laboratory Standards Institute (CLSI) guidelines (hereinafter the same).
(§2) First, each of the EGCG derivatives was dissolved in 100% dimethyl sulfoxide (DMSO, Wako Pure Chemical Industries, Ltd.) so that the concentration thereof became 5120 μg/ml. The resultant solution was diluted with DMSO or sterile distilled water so as to prepare two-fold dilution series of antibacterial agent solutions. […] Each of these antibacterial agent solutions was dispensed to wells of a 96-well plate. The concentration of the EGCG derivative in the antibacterial agent solution dispensed to the wells was set to be 10 times as high as the final concentration. On the other hand, the bacteria were cultured in the MH-broth at 37° C. overnight, and the thus-obtained pre-culture solution was diluted with a new MH-broth so that the concentration thereof in the MH-broth became 10^−4 (10^4-fold dilution), thus preparing a bacterial culture solution of about 1×10^5 CFU/ml (CFU: Colony Forming Unit, the number of viable cells). The bacterial culture solution was further added to each well, and the mixture was cultured at 37° C. for 18 hours. The ratio (volume ratio) between the antibacterial agent solution and the bacterial culture solution added to each well was set to 1:9 (the antibacterial agent solution:the bacterial culture solution), and the volume of the mixture of them per well was set to 100 μl in total. The final concentration of the EGCG derivative in the mixture was set to 8 μg/ml to 512 μg/ml, and the number of viable cells in the mixture was set to about 1×10^5 CFU/ml. Then, after the completion of the culture, the MIC was determined. Also, the turbidity (OD600 nm) was measured using a plate reader so as to identify minor differences.
(§3) Regarding the respective type strains shown in Tables 7 and 8 below, the MIC measurement was performed using the antibacterial agent solutions of Example 2 in the same manner as described in Section (2) of Example 1, except for the following. The antibacterial agent solutions were prepared by dissolving the EGCG derivatives of Example 2 in 100% DMSO and then diluting the resultant mixtures with sterile distilled water. The respective strains were derived from ATCC or NCTC. As Moraxella catarrhalis and Aspergillus fumigatus, clinical isolates thereof without an acquired resistance mechanism were used. For nutrient-rich bacteria, namely, Streptococcus pneumoniae ATCC49619, Streptococcus pyogenes ATCC19615, Streptococcus agalactiae ATCC13813, Moraxella catarrhalis, and Haemophilis influenzae ATCC49766, Strepto Haemo supplement (Eiken Chemical Co., Ltd.) was added to media for culturing them. The MIC measurement with respect to fungi was carried out by a broth microdilution method using a RPMI1640/MOPS (pH 7.0) medium in accordance with CLSI guidelines. About 2×10^3 cells/ml of fungi were inoculated to the medium. After the culture at 35° C. for 24 to 48 hours, the MIC was determined. Also, regarding the antibacterial agent solution of Comparative Example 2, the MIC was measured in the same manner.

[2] = tested on: Proteus vulgaris ATCC13315; assay: Antibacterial spectrum MIC (Table 7); format: cell-based
Description: as §1, §2, §3

E. coli MG1655 = assay: Bactericidal effect, number of remaining viable cells; format: cell-based, Escherichia coli; conditions: EGCG-C16 200 μg/ml, 0 to 6 hours, FIG. 2(B)
Description: (§4) The bactericidal effect of EGCG-C16 against MRSA ATCC43300, E. coli MG1655, and P. aeruginosa PAO1 was measured. Each strain of bacteria was cultured using an MH-broth as a medium.
(§5) The antibacterial agent solution and the bacterial culture solution were mixed together and the resultant mixture was cultured at 37° C. in the same manner as described in the above section (2), except that the final concentration of the EGCG-C16 in the mixture were set to: 6.25 μg/ml or 25 μg/ml for the MRSA; 200 μg/ml for the E. coli; and 50 μg/ml, 100 μg/ml, and 200 μg/ml for the P. aeruginosa. The number of viable cells in the mixture of the antibacterial agent solution and the bacterial culture solution was set to 1×10^5 CFU/ml. Then, after a lapse of a predetermined time from the start of the culture (0 hours, 2 hours, 4 hours, and 6 hours), the culture solution was collected and diluted with physiological saline so as to prepare 10-fold dilution series of solutions. 100 μl of each of the diluted bacterial culture solutions was placed on a petri dish. The diluted bacterial culture solution was hardened by mixing it with 10 ml of a Trypticase-soy Agar (BBL) that was kept at 50° C., and cultured at 37° C. overnight. Then, the number of the formed colonies (CFU/ml) was counted, and the number of remaining viable cells was measured. […]

P. aeruginosa PAO1 = assay: as above; format: cell-based, Pseudomonas aeruginosa; conditions: EGCG-C16 50, 100, 200 μg/ml, 0 to 6 hours, FIG. 2(C)
Description: as §4, §5

MRSA ATCC43300 = assay: as above; format: cell-based, Staphylococcus aureus; conditions: EGCG-C16 25 μg/ml, 0 to 6 hours, FIG. 2(A)
Description: as §4, §5

| Compound | MIC [1] [µg/mL] | MIC [2] [µg/mL] | number of remaining viable cells (E. coli MG1655) | number of remaining viable cells (P. aeruginosa PAO1) | number of remaining viable cells (MRSA ATCC43300) |
| --- | --- | --- | --- | --- | --- |
| EGCG-stearate [EGCG-C18] | 32 | – | – | – | – |
| O=C(O[C@@H]1Cc2c(O)cc(O)cc2O[C@@H]1c1cc(O)c(O)c(O)c1)c1cc(O)c(O)c(O)c1 [EGCG, Epigallocatechin gallate, reference compound] | 64 (≈ 140 µM) | 64 (≈ 140 µM) | – | – | – |
| EGCG-linolate [EGCG-C18DE] | – | 32 | – | – | – |
| EGCG-palmitate [EGCG-C16] | – | – | bacteriostatic action | bacteriostatic action | not only inhibited the propagation but also reduced the number of viable cells |
